Source: PubChem BioAssay AID1918932 (Molecular Pharmacology Branch, DTP, NCI, 2023)
pIC50: −log10 of the molar value.

Test system: 171881-019-R-J1-PDC complex spheroid viability
Assay: Anticancer human tumor 171881-019-R-J1-PDC patient-derived invasive breast carcinoma cell line growth inhibition
Settings: for pIC50: curve of first compound; for viability, T/C: stronger effect = lower value; active means viability on the fitted dose curve at most 10% of control; inactive means the rest
In short: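 Multicellular complex spheroids of tumor cells with human endothelial cells (HUVEC) and mesenchymal stem cells; the LSD1 inhibitor iadademstat was combined with standard-of-care or investigational agents. Top concentration at or near clinical Cmax, half-log dilutions; final DMSO ≤0.25%.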
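Further: spheroids exposed to agents for 7 days after 3 days growth.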

CC(C)CC(NC(=O)C(Cc1ccccc1)NC(=O)c1cnccn1)B(O)O (stereo not given) + NC1CC1c1ccc(-c2cccc(O)c2)cc1
active: viability, T/C (second compound 1 µM, first compound 0.00316 µM) 6.24% | viability, T/C (second compound 1 µM, first compound 0.01 µM) 7.73% | viability, T/C (second compound 1 µM, first compound 0.0316 µM) 7.79% | viability, T/C (second compound 1 µM, first compound 0.1 µM) 7.59% | viability, T/C (second compound 3.16 µM, first compound 0.000316 µM) 3.29% | viability, T/C (second compound 3.16 µM, first compound 0.001 µM) 4.7% | viability, T/C (second compound 3.16 µM, first compound 0.00316 µM) 3.45% | viability, T/C (second compound 3.16 µM, first compound 0.01 µM) 8.88% | viability, T/C (second compound 3.16 µM, first compound 0.0316 µM) 6.7% | viability, T/C (second compound 3.16 µM, first compound 0.1 µM) 5.34% | viability, T/C (second compound 10 µM, first compound 0.000316 µM) 5.61% | viability, T/C (second compound 10 µM, first compound 0.001 µM) 8.2% | viability, T/C (second compound 10 µM, first compound 0.00316 µM) 0.52% | viability, T/C (second compound 10 µM, first compound 0.01 µM) 3.61% | viability, T/C (second compound 10 µM, first compound 0.0316 µM) 8.57% | viability, T/C (second compound 10 µM, first compound 0.1 µM) 1.8%
> 9.50: pIC50 (second compound 0.1 µM) | pIC50 (second compound 0.316 µM) | pIC50 (second compound 1 µM) | pIC50 (second compound 3.16 µM) | pIC50 (second compound 10 µM)
inactive: viability, T/C (second compound 0.1 µM, first compound 0.000316 µM) 22.8% | viability, T/C (second compound 0.1 µM, first compound 0.001 µM) 21.4% | viability, T/C (second compound 0.1 µM, first compound 0.00316 µM) 16.4% | viability, T/C (second compound 0.1 µM, first compound 0.01 µM) 10.8% | viability, T/C (second compound 0.1 µM, first compound 0.0316 µM) 9.75% | viability, T/C (second compound 0.1 µM, first compound 0.1 µM) 13.1% | viability, T/C (second compound 0.316 µM, first compound 0.000316 µM) 24.2% | viability, T/C (second compound 0.316 µM, first compound 0.001 µM) 8.57% | viability, T/C (second compound 0.316 µM, first compound 0.00316 µM) 10.7% | viability, T/C (second compound 0.316 µM, first compound 0.01 µM) 11% | viability, T/C (second compound 0.316 µM, first compound 0.0316 µM) 13.4% | viability, T/C (second compound 0.316 µM, first compound 0.1 µM) 9.51% | viability, T/C (second compound 1 µM, first compound 0.000316 µM) 23.8% | viability, T/C (second compound 1 µM, first compound 0.001 µM) 18.2%

Nc1ncn(C2CC(O)C(CO)S2)c(=O)n1 (stereo not given) + NC1CCC(NC2CC2c2ccccc2)CC1
6.71: pIC50 (second compound 0.1 µM)
6.69: pIC50 (second compound 3.16 µM)
6.72: pIC50 (second compound 1 µM)
inactive: viability, T/C (second compound 0.1 µM, first compound 0.000949 µM) 85.7% | viability, T/C (second compound 0.1 µM, first compound 0.003 µM) 82.5% | viability, T/C (second compound 0.1 µM, first compound 0.00949 µM) 94.3% | viability, T/C (second compound 0.1 µM, first compound 0.03 µM) 105% | viability, T/C (second compound 0.1 µM, first compound 0.0949 µM) 70.9% | viability, T/C (second compound 0.1 µM, first compound 0.3 µM) 37.2% | viability, T/C (second compound 0.316 µM, first compound 0.000949 µM) 91.2% | viability, T/C (second compound 0.316 µM, first compound 0.003 µM) 75.8% | viability, T/C (second compound 0.316 µM, first compound 0.00949 µM) 90.9% | viability, T/C (second compound 0.316 µM, first compound 0.03 µM) 116% | viability, T/C (second compound 0.316 µM, first compound 0.0949 µM) 66.4% | viability, T/C (second compound 0.316 µM, first compound 0.3 µM) 35.7% | viability, T/C (second compound 1 µM, first compound 0.000949 µM) 73.4% | viability, T/C (second compound 1 µM, first compound 0.003 µM) 84% | viability, T/C (second compound 1 µM, first compound 0.00949 µM) 94.8% | viability, T/C (second compound 1 µM, first compound 0.03 µM) 101% | viability, T/C (second compound 1 µM, first compound 0.0949 µM) 66.8% | viability, T/C (second compound 1 µM, first compound 0.3 µM) 39.3% | viability, T/C (second compound 3.16 µM, first compound 0.000949 µM) 85.1% | viability, T/C (second compound 3.16 µM, first compound 0.003 µM) 87.5% | viability, T/C (second compound 3.16 µM, first compound 0.00949 µM) 111% | viability, T/C (second compound 3.16 µM, first compound 0.03 µM) 109% | viability, T/C (second compound 3.16 µM, first compound 0.0949 µM) 66.6% | viability, T/C (second compound 3.16 µM, first compound 0.3 µM) 41.3% | viability, T/C (second compound 10 µM, first compound 0.000949 µM) 85.4% | viability, T/C (second compound 10 µM, first compound 0.003 µM) 90.8% | viability, T/C (second compound 10 µM, first compound 0.00949 µM) 98.8% | viability, T/C (second compound 10 µM, first compound 0.03 µM) 93.8% | viability, T/C (second compound 10 µM, first compound 0.0949 µM) 69.1% | viability, T/C (second compound 10 µM, first compound 0.3 µM) 44.1%
6.76: pIC50 (second compound 0.316 µM)
6.64: pIC50 (second compound 10 µM)
